Experimental findings from patent publication US8592460B2, “Amino-pyridine derivatives as S1P1 /EDG1 receptor agonists” (Actelion Pharmaceuticals Ltd., priority 2007, dated 2013) are described below.

pEC50: −log10 of the molar value.

recombinant human S1P1 receptor, sequence (P21453 whole entry): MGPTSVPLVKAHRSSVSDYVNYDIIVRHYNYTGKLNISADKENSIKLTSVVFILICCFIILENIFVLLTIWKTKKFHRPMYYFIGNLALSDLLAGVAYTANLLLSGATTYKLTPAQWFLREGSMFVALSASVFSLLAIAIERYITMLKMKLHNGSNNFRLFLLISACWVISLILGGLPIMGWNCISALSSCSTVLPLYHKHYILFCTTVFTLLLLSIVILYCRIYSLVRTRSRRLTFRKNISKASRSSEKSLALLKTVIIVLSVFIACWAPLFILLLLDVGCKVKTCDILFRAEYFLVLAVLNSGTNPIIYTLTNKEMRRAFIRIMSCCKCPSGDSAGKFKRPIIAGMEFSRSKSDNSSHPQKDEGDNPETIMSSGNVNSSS

The target in the first test is recombinant human S1P1 receptor (Homo sapiens, UniProt P21453). Nature of the test: GTPγS assay to determine EC50 values. The conditions noted are these: agonistic activity; 35S-GTPγS binding, membrane preparations of CHO cells expressing recombinant human S1P1 receptor. In kind it is biochemical. On the procedure:
GTPγS binding assays are performed in 96 well microtiter plates (Nunc, 442587) in a final volume of 200 μl, using membrane preparations of CHO cells expressing recombinant human S1P1 receptor. Assay conditions are 20 mM Hepes (Fluka, 54461), 100 mM NaCl (Fluka, 71378), 5 mM MgCl2(Fluka, 63064), 0.1% BSA (Calbiochem, 126609), 1 μM GDP (Sigma, G-7127), 2.5% DMSO (Fluka, 41644), […] ^35S-GTPγS (Amersham Biosciences, SJ1320). The pH is 7.4. Test compounds are dissolved and diluted in 100% DMSO and pre-incubated at room temperature for 30 min in 150 μl of the above assay buffer, in the absence of ^35S-GTPγS. After addition of 50 μl of ^35S-GTPγS, the assay is incubated for 1 h at rt. The assay is terminated by transfer of the reaction mixture to a Multiscreen plate (Millipore, MAHFC1H60) using a cell harvester from Packard Biosciences, and the plates are washed with ice-cold 10 mM Na2HPO4/NaH2PO4 (70%/30%), dried, sealed at the bottom and, after addition of 25 μl MicroScint20 (Packard Biosciences, order#6013621), sealed on the top. Membrane-bound ^35S-GTPγS is measured with a TopCount from Packard Biosciences.
EC50 is the concentration of agonist inducing 50% of the maximal specific ^35S-GTPγS binding. Specific binding is determined by subtracting non-specific binding from maximal binding. Maximal binding is the amount of cpm bound to the Multiscreen plate in the presence of 10 μM of S1P. Non-specific binding is the amount of binding in the absence of an agonist in the assay.
Turning to `CCc1cc(-c2noc(-c3cc(C)nc(NC(C)C)c3)n2)cc(C)c1OC[C@H](O)CO` [Example 198, (R)-3-{2-ethyl-4-[5-(2-isopropylamino-6-methyl-pyridin-4-yl)-[1,2,4]oxadiazol-3-yl]-6-methyl-phenoxy}-propane-1,2-diol], the pEC50 (commonly −log10 of the EC50, conventionally taken in molar units) is 8.62.
The same measure, in the same setting: in the case of `CCc1cc(-c2nc(-c3cc(C)c(OCC(O)CNC(=O)CO)c(CC)c3)no2)cc(N(C)C)n1` (racemic) [Example 32, rac-N-(3-{4-[5-(2-Dimethylamino-6-ethyl-pyridin-4-yl)-[1,2,4]oxadiazol-3-yl]-2-ethyl-6-methyl-phenoxy}-2-hydroxy-propyl)-2-hydroxy-acetamide] it was 8.92; in that of `CCc1cc(-c2noc(-c3cc(C)nc(N(C)C(C)C)c3)n2)cc(C)c1CCC(=O)NCCC(=O)O` [Example 26, 3-[3-(2-Ethyl-4-{5-[2-(isopropyl-methyl-amino)-6-methyl-pyridin-4-yl]-[1,2,4]oxadiazol-3-yl}-6-methyl-phenyl)-propionylamino]-propionic acid], 8.59; in that of `Cc1cc(-c2nc(-c3cc(C)c(OC[C@@H](O)CNC(=O)CO)c(Cl)c3)no2)cc(N(C)C(C)C)n1` [Example 146, N—[(S)-3-(2-chloro-4-{5-[2-(isopropyl-methyl-amino)-6-methyl-pyridin-4-yl]-[1,2,4]oxadiazol-3-yl}-6-methyl-phenoxy)-2-hydroxy-propyl]-2-hydroxy-acetamide], 9.10.
For the molecule `CCc1cc(-c2nc(-c3cc(C)c(OC[C@@H](O)CNC(=O)CO)c(CC)c3)no2)cc(N(C)C)n1` [Example 192, N—((S)-3-{4-[5-(2-dimethylamino-6-ethyl-pyridin-4-yl)-[1,2,4]oxadiazol-3-yl]-2-ethyl-6-methyl-phenoxy}-2-hydroxy-propyl)-2-hydroxy-acetamide], the pEC50 is 9.70.
For the molecule `CCc1cc(-c2noc(-c3cc(C)nc(N(C)CC(C)C)c3)n2)cc(C)c1OC[C@@H](O)CNC(=O)CO` [Example 232, N—[(S)-3-(2-ethyl-4-{5-[2-(isobutyl-methyl-amino)-6-methyl-pyridin-4-yl]-[1,2,4]oxadiazol-3-yl}-6-methyl-phenoxy)-2-hydroxy-propyl]-2-hydroxy-acetamide], the pEC50 was 8.39.
For `CCCc1cc(-c2noc(-c3cc(C)nc(N(C)C(C)C)c3)n2)cc(C)c1OC[C@@H](O)CNC(=O)CO` [Example 139, 2-hydroxy-N—[(S)-2-hydroxy-3-(4-{5-[2-(isopropyl-methyl-amino)-6-methyl-pyridin-4-yl]-[1,2,4]oxadiazol-3-yl}-2-methyl-6-propyl-phenoxy)-propyl]-acetamide], the pEC50 was 8.70.
Regarding `CCc1cc(-c2nc(-c3cc(C)nc(N(CC)CC)c3)no2)cc(C)c1OC[C@H](O)CNC(=O)CO` [Example 79, N—((R)-3-{4-[3-(2-diethylamino-6-methyl-pyridin-4-yl)-[1,2,4]oxadiazol-5-yl]-2-ethyl-6-methyl-phenoxy}-2-hydroxy-propyl)-2-hydroxy-acetamide], the pEC50 was 8.85.
Regarding `COc1cc(OC[C@H](O)CNC(=O)CO)ccc1-c1noc(-c2cc(C)nc(N(C)C(C)C)c2)n1` [Example 159, 2-hydroxy-N—[(R)-2-hydroxy-3-(4-{5-[2-(isopropyl-methyl-amino)-6-methyl-pyridin-4-yl]-[1,2,4]oxadiazol-3-yl}-3-methoxy-phenoxy)-propyl]-acetamide], the pEC50 is 8.29.
Same read-out and setting: in the case of `CCc1cc(-c2noc(-c3cc(C)nc(NC(C)C)c3)n2)cc(C)c1OC[C@@H](O)CNC(=O)CO` [Example 203, N—((S)-3-{2-ethyl-4-[5-(2-isopropylamino-6-methyl-pyridin-4-yl)-[1,2,4]oxadiazol-3-yl]-6-methyl-phenoxy}-2-hydroxy-propyl)-2-hydroxy-acetamide] it was 9.30.
As to `CCN(CC)c1cc(-c2nc(-c3cc(Cl)c(OC[C@H](O)CNC(=O)CO)c(OC)c3)no2)cc(C)n1` [Example 116, N—((R)-3-{2-chloro-4-[5-(2-diethylamino-6-methyl-pyridin-4-yl)-[1,2,4]oxadiazol-3-yl]-6-methoxy-phenoxy}-2-hydroxy-propyl)-2-hydroxy-acetamide], the pEC50 was 8.70.
On the same count and under the same terms, in the case of `CCN(CC)c1cc(-c2nc(-c3cc(C)c(OC[C@@H](O)CNC(=O)CO)c(Cl)c3)no2)cc(C)n1` [Example 109, N—((S)-3-{2-chloro-4-[5-(2-diethylamino-6-methyl-pyridin-4-yl)-[1,2,4]oxadiazol-3-yl]-6-methyl-phenoxy}-2-hydroxy-propyl)-2-hydroxy-acetamide] it was 9.30.
For the molecule `Cc1cc(-c2nc(-c3cc(C)c(O)c(C)c3)no2)cc(N(C)C(C)C)n1` [Example 21, 4-{5-[2-(Isopropyl-methyl-amino)-6-methyl-pyridin-4-yl]-[1,2,4]oxadiazol-3-yl}-2,6-dimethyl-phenol], the pEC50 was 8.44.
On the same count and under the same terms, in the case of `CCc1cc(-c2noc(-c3cc(C)nc(N(C)C(C)C)c3)n2)cc(C)c1OC[C@@H](O)CNC(=O)CO` [Example 130, N—[(S)-3-(2-ethyl-4-{5-[2-(isopropyl-methyl-amino)-6-methyl-pyridin-4-yl]-[1,2,4]oxadiazol-3-yl}-6-methyl-phenoxy)-2-hydroxy-propyl]-2-hydroxy-acetamide] it was 10.00.
On the same count and under the same terms, in the case of `Cc1cc(-c2nc(-c3cc(C)c(OC[C@@H](O)CO)c(C)c3)no2)cc(N(C)C(C)C)n1` [Example 22, (S)-3-(4-{5-[2-(Isopropyl-methyl-amino)-6-methyl-pyridin-4-yl]-[1,2,4]oxadiazol-3-yl}-2,6-dimethyl-phenoxy)-propane-1,2-diol] it was 9.15.
Turning to `CCc1cc(-c2noc(-c3cc(C)nc(N(CC)CC)c3)n2)cc(C)c1OCCN1CCC(C(=O)O)C1` (racemic) [Example 66, rac-1-(2-{4-[5-(2-Diethylamino-6-methyl-pyridin-4-yl)-[1,2,4]oxadiazol-3-yl]-2-ethyl-6-methyl-phenoxy}-ethyl)-pyrrolidine-3-carboxylic acid], the pEC50 was 8.21.
Regarding `CCc1cc(-c2noc(-c3cc(C)nc(N(CC)CC)c3)n2)cc(C)c1OCC(O)CO` (racemic) [Example 15, rac-3-{4-[5-(2-Diethylamino-6-methyl-pyridin-4-yl)-[1,2,4]oxadiazol-3-yl]-2-ethyl-6-methyl-phenoxy}-propane-1,2-diol], the pEC50 is 8.92.
Regarding `CCc1cc(-c2nnc(-c3cc(C)nc(N(CC)CC)c3)o2)cc(C)c1OC[C@@H](O)CNC(=O)CO` [Example 87, N—((S)-3-{4-[5-(2-diethylamino-6-methyl-pyridin-4-yl)-[1,3,4]oxadiazol-2-yl]-2-ethyl-6-methyl-phenoxy}-2-hydroxy-propyl)-2-hydroxy-acetamide], the pEC50 is 8.47.

The test is the same for the next values; noted with them: agonistic activity; 35S-GTPγS binding, membranes of CHO cells expressing recombinant human S1P1 receptor.
Consider `CCc1cc(-c2noc(-c3cc(C)nc(N4CCOCC4)c3)n2)cc(C)c1OC[C@@H](O)CN` [Example 209], for which the pEC50 was less than 5.00.
On to `CCc1cc(-c2nnc(-c3cc(C)nc(N(C)C(C)C)c3)s2)cc(C)c1OC[C@H](O)CN` [Example 178], for which the pEC50 was less than 5.00.
`CCc1cc(-c2noc(-c3cc(C)nc(N(C)CC(C)C)c3)n2)cc(C)c1OCC(O)CO` (racemic) [Example 34, rac-3-(2-Ethyl-4-{5-[2-(isobutyl-methyl-amino)-6-methyl-pyridin-4-yl]-[1,2,4]oxadiazol-3-yl}-6-methyl-phenoxy)-propane-1,2-diol]: the pEC50 was less than 5.00.
Take `CCc1cc(-c2nnc(-c3cc(C)nc(N(C)C(C)C)c3)s2)cc(C)c1OC[C@H](O)CO` [Example 176]: the pEC50 is less than 5.00.
Consider `CCc1cc(-c2nnc(-c3cc(C)nc(N(C)C(C)C)c3)s2)cc(C)c1OC[C@@H](O)CN` [Example 179], for which the pEC50 is less than 5.00.
As for `CCc1cc(-c2noc(-c3cc(C)nc(N4CCOCC4)c3)n2)cc(C)c1OC[C@H](O)CN` [Example 208], the pEC50 was less than 5.00.
Consider `CCc1cc(-c2nnc(-c3cc(C)nc(N(CC)CC)c3)s2)cc(C)c1OC[C@@H](O)CO` [Example 90], for which the pEC50 was less than 5.00.

In another test the test system is circulating lymphocytes. Put plainly: Assessment of in vivo efficacy: circulating lymphocytes after oral administration. As to conditions: 6 h after oral administration of 10 mg/kg to normotensive male Wistar rats, compared to vehicle-treated group; mean ± SEM. The arrangement: species or system rat. As to the method: The efficacy of the compounds of formula (I) is assessed by measuring the circulating lymphocytes after oral administration of 3 to 30 mg/kg of a compound of formula (I) to normotensive male Wistar rats. The animals are housed in climate-controlled conditions with a 12 h-light/dark cycle, and have free access to normal rat chow and drinking water. Blood is collected before and 3, 6 and 24 h after drug administration. Full blood is subjected to hematology using Advia Hematology system (Bayer Diagnostics, Zurich, Switzerland).
All data are presented as mean±SEM. Statistical analyses are performed by analysis of variance (ANOVA) using Statistica (StatSoft) and the Student-Newman-Keuls procedure for multiple comparisons. The null hypothesis is rejected when p<0.05.
Lymphocyte counts 6 h after oral administration have been measured for 39 of the 258 exemplified compounds and are in the range of −82% to −48% with an average of −65%.
As for `CCN(CC)c1cc(-c2nc(-c3cc(C)c(OC[C@@H](O)CO)c(C)c3)no2)cc(C)n1` [Example 11, (S)-3-{4-[5-(2-diethylamino-6-methyl-pyridin-4-yl)-[1,2,4]oxadiazol-3-yl]-2,6-dimethyl-phenoxy}-propane-1,2-diol], the Lymphocyte counts is −70 ± 2%.
